Reference: US10577387B1, “Platinum (II) complexes containing N-heterocyclic carbene ligand and pincer ligands, synthesis, and their applications in cancer treatment” (priority 2018, dated 2020)

What was measured:
[1] = test system: HCT116; experiment: MTT assay, in vitro cytotoxicity; type: cell-based, human; details: 72 h
Procedure: (§1) The cell lines were maintained in cell culture media (Minimum essential medium (MEM) for HeLa; and Dulbecco's modified eagle medium (DMEM) for MDA-MB-231 and MiHa, Roswell Park Memorial Institute (RPMI) medium for NCI-H460 and HCT116 supplemented with fetal bovine serum (10 vol %), streptomycin (100 μg/ml) and penicillin (100 U/ml) in an incubator (5% CO2) at 37° C.
(§2) The inhibition of cell growth by different metal complexes were determined by MTT assay. Firstly, 4×10^3 to 8×10^3 cells were seeded on 96-well culture plates for 24 h. Then, different concentrations of complex was added into different wells by serial dilution and the cells were incubated with complex for 48-72 h. After that, 10 μl of MTT solution (5 mg/ml) was added per well and the plate was incubated for 4 h at 37° C. in a humidified atmosphere of 5% CO2. Viable cells with active metabolism converted MTT into a purple colored formazan product. In order to solubilize the formazan for absorbance readings, 100 μl of SDS (0.1 g/ml, 0.01 M HCl) was added per well and the plate was kept in a dark and humidified chamber overnight. Finally, the absorbance at 580 nm of each well was monitored by microtiter plate reader.
(§3) The growth inhibition by a specific complex was represented by IC50 (concentration of a complex causing 50% inhibition of cell growth). Each experiment was repeated three times and the results were expressed as means±standard deviation (SD).

[2] = test system: HeLa; experiment: MTT assay, in vitro cytotoxicity; type: cell-based, human; details: 72 h
Procedure: as §1, §2, §3

[3] = test system: NCI-H460; experiment: MTT assay, in vitro cytotoxicity; type: cell-based, human; details: 72 h
Procedure: as §1, §2, §3

[4] = test system: MDA-MB-231; experiment: MTT assay, in vitro cytotoxicity / cell growth; type: cell-based, human; details: for cell growth inhibition, agent alone: 1b at sub-cytotoxic concentration, LY294002 or U0126 10 or 20 μM
[5] = test system: MiHa; experiment: MTT assay, in vitro cytotoxicity, non-tumorigenic hepatocyte; type: cell-based, human; details: 72 h
Procedure: as §1, §2
The growth inhibition by a specific complex was represented by IC50 (concentration of a complex causing 50% inhibition of cell growth). […]

[6] = test system: HeLa cells; experiment: Confocal fluorescence microscopy co-localization with organelle probes; type: cell-based, human; details: 1b 5 μM
Procedure: HeLa cells (2×10^5 cells) were seeded in a one chamber slide (Nalgene; Nunc) with culture medium (2 mL per well) and incubated at 37° C. in a humidified atmosphere of 5% CO2/95% air for 24 h. After treating with 1b (5 μM) for 1 h, ER-tracker™ red (1 μM), Mitotracker® deep red (50 nM) or Lysotracker® deep red (50 nM) were incubated with cells for 10 min, and then the cells were washed with PBS twice. Confocal fluorescence images were captured using a Carl Zeiss LSM510 Meta confocal microscope with the use of 488 and 543 nm/633 nm lasers for the excitation of complex 1b and red/deep red tracker respectively, under a Plan-Apochromat 63×1.40NA oil-immersion objective.

[7] = test system: PERK, eIF2α, CHOP in MDA-MB-231 cells; experiment: Western blot of ER stress-related proteins; type: cell-based, human; details: 5 uM for 6, 12, 24 and 48 h
Procedure: (§4) MDA-MB-231 cells (5×10^5 cells) were incubated with Pt compound and washed with phosphate-buffered saline (PBS), lysed with radioimmunoprecipitation assay buffer (1% Triton X-100, 10% glycerol, 150 mM NaCl, 5 mM sodium fluoride, 1 mM sodium vanadate and protein inhibitor cocktail) for 15 min at 4° C. The cell lysates were centrifuged at 13,000 rpm for 15 min at 4° C. The protein concentrations of the extracts were determined using a BCA protein assay kit (Beyotime, Haimen, China). Specific amount of protein sample (30 μg) was then boiled for 5 min in a 5× sample buffer (50 mM Tris (pH 7.4), 4% sodium dodecyl sulfate (SDS), 10% glycerol and 50 μg/mL bromophenol blue) at a volume ratio of 4:1. Protein samples were subjected to SDS-polyacrylamide gel electrophoresis (PAGE), transferred to polyvinylidene difluoride membranes and immunoblotted with primary anti-bodies. After further incubation with horseradish peroxidase (HRP)-conjugated secondary antibody, the blot was stained with a chemiluminescent detection reagent and subsequently analyzed by enhanced chemiluminescence. Protein expression was visualized on Kodak Biomax X-ray film.

[8] = test system: PARP, caspases 3 and 9 in MDA-MB-231 cells; experiment: Western blot of apoptosis-related proteins; type: cell-based, human; details: 48 h
Procedure: as §4

[9] = test system: p15, cyclin D1/D3, CDK 4/6 in MDA-MB-231 cells; experiment: Western blot of G0/G1 phase-related proteins; type: cell-based, human; details: 24 h
Procedure: as §4

[10] = test system: HeLa cells; experiment: JC1 staining (mitochondrial membrane potential); type: cell-based, human; details: with increasing dosage, 2 h
[11] = test system: MDA-MB-231 cells; experiment: Wound closure (scratch) migration assay; type: cell-based, human; details: for inhibition of migration, agent alone: 1b at sub-cytotoxic concentration, LY294002 or U0126 10 or 20 μM
Procedure: MDA-MB-231 cells were cultured in 6-well plate and allowed to form a confluent monolayer for 24 h. After serum starved for 4 h, cells were scratched by pipette tips, washed with PBS and photographed by using a fluorescence microscope (20× objective). The fresh medium supplemented with 10 vol % FBS was added into each well with different concentrations of Pt complex. After incubated for 24 h, cells were photographed again at three random areas. Then the migrated cells were quantified by manual counting and inhibition ratio was expressed as % of control.

[12] = test system: MDA-MB-231 cells; experiment: Transwell invasion assay; type: cell-based, human; details: for inhibition of invasion, agent alone: 1b at sub-cytotoxic concentration, LY294002 or U0126 10 or 20 μM
[13] = test system: MS1 cells; experiment: Tube formation assay; type: cell-based; details: 3 h, sub-cytotoxic concentrations
Procedure: The In Vitro Angiogenesis Kit (CaymanChemical) was used in the tube formation assay. Firstly, the ECMatrix solution and 10× Diluent Buffer were mixed in 9:1 (v/v) ratio on ice. Then 50 μL of mixture was transferred into each well of 96-well plate and incubated at 37° C. for 1 h for polymerization. Then, around 4×10^4 of MS-1 cells in 100 μL DMEM medium was pre-mixed with different concentrations of complex and that cell-complex containing medium was added on the top of the polymerized matrix. […]

[14] = in vitro; type: cell-based; details: mouse
Procedure: (§5) At the same time, the cell viability under the same condition was determined by MTT assay. Again, around 4×10^4 MS-1 cells in 100 μL DMEM medium was pre-mixed with different concentrations of complex and they were seeded into 96-well plate. After 2 h, the medium was removed and fresh medium with 10% MTT was added per well and the plate was incubated for 4 h at 37° C. in a humidified atmosphere of 5% CO2. In order to solubilize the formazan for absorbance readings, 100 μl of SDS (0.1 g/ml, 0.01 M HCl) was added per well and the plate was kept in a dark and humidified chamber overnight. Finally, the absorbance at 580 nm of each well was monitored by microtiter plate reader. Each experiment was repeated three times and the results were expressed as means±standard deviation (SD).

[15] = test system: MS1 cells; experiment: in vitro; type: cell-based
Procedure: as §5

[16] = test system: uPA, MMP-9, TIMP-1 in MDA-MB-231 cells; experiment: Western blot of uPA, MMP-9 and TIMP1; type: cell-based, human
Procedure: as §4

[17] = test system: FAK, ERK, Akt in MDA-MB-231 cells; experiment: Western blot of phosphorylated and total FAK, ERK and Akt; type: cell-based, human
Procedure: as §4

[18] = test system: HUVECs; experiment: Conditioned medium (VEGF)-mediated migration; type: cell-based, human; details: MDA-MB-231 conditioned medium VEGF 13.4 ng/mL, 24 h, sub-cytotoxic
Procedure: (§6) Human umbilical vein endothelial cells (HUVEC) were cultured in endothelial cell growth medium (ECGM): M199 medium (Life Technologies, Invitrogen) supplemented with 15 vol % fetal bovine serum at 37° C. in a humidified (5% CO2, 95% air) atmosphere.

[19] = test system: HUVECs; experiment: Conditioned medium (VEGF)-mediated transwell invasion; type: cell-based, human; details: MDA-MB-231 conditioned medium VEGF 13.4 ng/mL, 24 h, sub-cytotoxic
Procedure: as §6
Effects of Pt complex on the invasion of MDA-MB-231 or HUVECs cells were performed on Transwell Boyden chamber (8 μm pore, Corning, Lowel, Mass.) pre-coated with matrigel for 4 h at 37° C. The cell suspension (2.5×10^5 cells/ml, 100 μL) in serum free medium (SFM) was placed to the upper compartment of chamber. The bottom chambers were supplemented with 500 μl complete medium (10 vol % FBS) or conditioned medium (with VEGF=13.4 ng/ml from MDA-MB-231 cells) containing indicated concentrations of Pt complex. After incubated for 24 h, the non-migrant cells from the upper face were scraped using a cotton swab. The invaded cells on the lower face were fixed with methanol, stained with Giemsa, photographed by a phase-contrast microscope (200×, Nikon TS 100). The invaded cells were quantified by manual counting and inhibition ratio was expressed as % of control.

[20] = test system: HUVECs; experiment: Conditioned medium (VEGF)-mediated tube formation; type: cell-based, human; details: MDA-MB-231 conditioned medium VEGF 13.4 ng/mL, 24 h, sub-cytotoxic
Procedure: as §6

[21] = test system: chicken CAM; experiment: Chorioallantoic membrane (CAM) assay, ex vivo angiogenesis; details: VEGF 50 ng/mL, one day
Procedure: The effect of Pt complex on the ex vivo angiogenesis was determined by chorioallantoic membrane (CAM) assay. Briefly, fertilized chicken eggs were incubated at 37° C. in a humidified incubator with forced air circulation. After 5-6 days, eggs were cracked open and methylcellulose discs containing different concentrations of 1d (40 μl/egg) and VEGF (50 ng/mL) were gently implanted on top of chicken CAM. After one day incubation, the CAM was observed under a microscope (Olympus BX 40) and photographed. VEGF treatment group was used as a positive control. Three eggs per group were used in each experiment and three independent experiments were performed.

[22] = test system: MDA-MB-231 xenografts; experiment: In vivo tumor growth inhibition; parameters: species or system nude mice; details: 5 and 2.5 mg/kg
Procedure: All experiments were followed to the guidelines of the Laboratory Animal Unit of the University of Hong Kong. Ten mice were randomly divided into two groups (5 mice for each group) for two different treatment conditions.
Around 4×10^6 of cancer cells in 100 μL of PBS were injected into right back flanks of the mice through subcutaneous injection. […] The size of the tumors were measured by a ruler every 2-3 days until the mice were sacrificed. The longest diameter (a) and shortest diameter (b) of the tumor would be picked up and the volume of the tumor could be calculated through the following formula: V=0.52×ab^2
It should be noted that the body weight of the mice were also be recorded in order to examine the side effect of the drugs.
To calculate the inhibition effect of the drug, the ratio of enlargement of tumor volume between the drug treatment group and control group would be applied in the following formula:
where Vt and Vt′ are the tumor volumes of drug treatment and control group respectively; V0 and V0′ are the tumor volume at the 0 day of drug treatment and control group respectively.

[23] = test system: MDA-MB-231 xenograft tumor tissues; experiment: Immunohistochemical analysis of tumor tissues from treated mice; type: in vivo, nude mice; details: 2.5 and 5.0 mg/kg
[24] = Blood biochemistry, systemic toxicity; details: treated vs untreated mice bearing MDA-MB-231 xenografts
[25] = increasing concentration (24 h) or incubation time (2 μM)
[26] = different concentrations 24 h or 2 μM over time

## N.N.[Cl][Pt][Cl] [Cisplatin, cis-diamminedichloroplatinum]
[1]
  IC50: 11.8 ± 1.36 µM
[2]
  IC50: 12.9 ± 3.84 µM
[3]
  IC50: 24.9 ± 3.19 µM
[4]; MTT, 72 h
  IC50: 77.2 ± 7.82 µM
[5]
  IC50: > 100 µM

## CCCCN1C=CN(CCCC)[CH]1[Pt]12[n]3c(c4ccccc4c3=Nc3cccc[n+]31)=Nc1cccc[n+]12 [Complex 1b]
[4]; 0.25-1 μM
  growth inhibition at the concentrations of the migration assay: insignificant growth inhibition
[4]
  cell growth inhibition, agent alone: insignificant cell growth inhibitory effects
[6]
  Pearson's correlation coefficient for co-localization with ER-Tracker: 0.83
[7]
  CHOP level: stimulated
  phosphorylated PERK level: significant up-regulation
  phosphorylated eIF2α level: stimulated
[8]
  cleavage of PARP and caspases 3 and 9: cleaved
[9]
  cyclin D1/D3 and CDK 4/6 expression: down-regulation
  p15 expression: stimulation
[10]
  JC1 ratio of orange to green fluorescence: decrease
[11]
  inhibition of migration, agent alone: notable inhibition
[11]; sub-cytotoxic 0.25-1 μM, 24 h
  migration of MDA-MB-231 cells: effectively inhibited
[12]
  inhibition of invasion, agent alone: notable inhibition
[12]; sub-cytotoxic concentrations, 24 h
  invasion of MDA-MB-231 cells: significant inhibition
[13]
  angiogenesis (tube formation) of MS1 cells: significant inhibition
[14]
  viability at 3 h: > 90%
[15]
  cell death of MS1 cells: no significant cell death
[16]; 24 h
  expression of TIMP-1: moderately increased
[16]; [25]
  expression level of MMP-9: decreased significantly
  expression level of uPA: decreased significantly
[17]; [26]
  phosphorylation of FAK at Tyr397: significantly suppress
  phosphorylation of FAK at Tyr925 and Tyr576/577: moderately inhibited
  total protein level of FAK: little effect
[17]; dose- and time-dependent
  phosphorylation of Akt: significantly inhibited
  phosphorylation of ERK: significantly inhibited
[18]
  CM-mediated migration of HUVECs: significantly suppressed
[19]
  CM-mediated invasion of HUVECs: significantly suppressed
[20]
  CM-mediated tube formation of HUVECs: significantly suppressed
[21]
  ex vivo angiogenesis in CAM assay: effective ex vivo anti-angiogenic properties
[22]
  death or body weight loss of mice during the treatment: did not cause any death or body weight loss
[23]
  CD34 staining, blood vessel formation in tumors: significant inhibition of blood vessel formation
  DNA fragmentation (TUNEL assay) in tumor tissues: higher levels
  caspase-3 in tumor tissues: higher levels
[23]; vs control mice
  expression of Ki67 in tumor tissues: decrease
[24]
  blood glucose (GLU): higher level
  blood urea nitrogen (BUN): higher level
  plasma level of aspartate aminotransferase (AST): lower
  plasma level of blood fat (CHOL): lower
  plasma level of creatine kinase (CK): lower

## N#CC(=C(/N)Sc1ccccc1N)/C(C#N)=C(\N)Sc1ccccc1N [Complex U0126, reference compound]
[4]
  cell growth inhibition, agent alone: insignificant cell growth inhibitory effects
[11]
  inhibition of migration, agent alone: notable inhibition
[12]
  inhibition of invasion, agent alone: notable inhibition
